Measurements from ChEMBL document CHEMBL1201862, “PubChem BioAssay data set” (2004).
Values joined by “and” are separate entries in the source; they are usually repeats but may differ in a detail not shown here. Equal values may be shown once.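 Exposure lasted 48 hours, with cells grown in 96-well plates and compounds tested at five concentrations. GI50 is the concentration that inhibits growth by half.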 Active and inactive are the calls of the source. No stated cut-off is given here; in the data, active = GI50 up to about 1.1 µM and inactive = higher.

What was measured:
Assay in all cases: inhibition of tumour cell growth, NCI panel, 48 h
A498 = tested on: A498
CAKI-1 = tested on: CAKI-1
HL-60 = tested on: HL-60
HOP-92 = tested on: HOP-92
IGROV-1 = tested on: IGROV-1
KM12 = tested on: KM12
MCF7 = tested on: MCF7
MDA-MB-231 = tested on: MDA-MB-231
MDA-MB-435 = tested on: MDA-MB-435
MOLT-4 = tested on: MOLT-4
NCI-H226 = tested on: NCI-H226
OVCAR-5 = tested on: OVCAR-5
PC-3 = tested on: PC-3
SF-539 = tested on: SF-539
SK-OV-3 = tested on: SK-OV-3
SN12C = tested on: SN12C
UACC-257 = tested on: UACC-257
UACC-62 = tested on: UACC-62
RXF 393 = tested on: RXF 393
SF-268 = tested on: SF-268

Measured: GI50

Cc1nc(=O)[nH]c2s/c(=N/C3CCCCC3)n(C3CCCCC3)c(=O)c12
inactive: A498 > 100 µM | CAKI-1 > 100 µM | HL-60 > 100 µM | HOP-92 > 100 µM | IGROV-1 > 100 µM | KM12 > 100 µM | MCF7 > 100 µM | MDA-MB-231 > 100 µM | MDA-MB-435 > 100 µM | MOLT-4 > 100 µM | NCI-H226 > 100 µM | OVCAR-5 > 100 µM | PC-3 > 100 µM | SF-539 > 100 µM | SK-OV-3 > 100 µM | SN12C > 100 µM | UACC-257 > 100 µM | UACC-62 > 100 µM

COC(=O)CCC1(O)C=CC(=O)C=C1
inactive: A498 > 100 µM | CAKI-1 16.6 µM | HOP-92 65.6 µM | IGROV-1 20.6 µM | KM12 > 100 µM | MCF7 38.3 µM | MDA-MB-231 > 100 µM | MDA-MB-435 > 100 µM | MOLT-4 37.7 µM | NCI-H226 > 100 µM | OVCAR-5 > 100 µM | PC-3 > 100 µM | RXF 393 23.6 µM | SF-268 29.6 µM | SF-539 25.8 µM | SN12C 57.1 µM | UACC-257 17.1 µM | UACC-62 20.3 µM

C=C(C(=O)O)[C@@H]1C[C@@H]2O[C@H]1[C@@H](O)[C@@H](C)CCCC(C)=CCC[C@@]2(C)O
inactive: A498 > 100 µM | HOP-92 > 100 µM and 99.8 µM | IGROV-1 92.9 µM and > 75 µM | KM12 > 100 µM | MCF7 46 µM and > 91.6 µM | MDA-MB-231 > 100 µM | MDA-MB-435 71.8 µM and > 81.3 µM | NCI-H226 > 100 µM | OVCAR-5 > 100 µM | PC-3 > 100 µM | RXF 393 > 100 µM and > 89.1 µM | SF-268 > 100 µM | SF-539 87.5 µM | SK-OV-3 > 100 µM | SN12C > 100 µM | UACC-257 > 100 µM | UACC-62 > 100 µM and > 90.4 µM

O=C(CC(C(=O)c1cccs1)c1ccsc1)c1ccsc1 (configuration not stated)
inactive: A498 11.4 µM | HL-60 40.1 µM | HOP-92 29.2 µM | IGROV-1 54.1 µM | KM12 42.9 µM | MCF7 32.5 µM | MDA-MB-231 30 µM | MDA-MB-435 20.3 µM | MOLT-4 21 µM | OVCAR-5 > 100 µM | PC-3 29 µM | RXF 393 25.6 µM | SF-268 51.6 µM | SF-539 27.5 µM | SK-OV-3 32.1 µM | SN12C 52 µM | UACC-257 70.5 µM | UACC-62 14 µM

S=C(Nc1ccc(/N=N/c2ccccc2)cc1)SCc1ccccc1
inactive: A498 19.9 µM | CAKI-1 16.5 µM | HOP-92 13.4 µM | IGROV-1 17.7 µM | KM12 16.2 µM | MCF7 23.3 µM | MDA-MB-231 14.7 µM | MDA-MB-435 16.2 µM | MOLT-4 12.1 µM | NCI-H226 18.9 µM | PC-3 15 µM | RXF 393 19.6 µM | SF-268 17 µM | SF-539 18.4 µM | SK-OV-3 38.8 µM | SN12C 15.7 µM | UACC-257 16.3 µM | UACC-62 17.8 µM

CC(=O)OCC1OC(N2C(=O)CC(N)=Nc3ccccc32)C(OC(C)=O)C(OC(C)=O)C1OC(C)=O (configuration not stated)
inactive: A498 62.8 µM | CAKI-1 > 100 µM | HL-60 67.3 µM | HOP-92 > 100 µM | IGROV-1 45.1 µM | KM12 45.2 µM | MCF7 29.4 µM | MDA-MB-231 > 100 µM | MDA-MB-435 30.6 µM | MOLT-4 16.7 µM | OVCAR-5 > 100 µM | PC-3 42.6 µM | RXF 393 23.1 µM | SF-268 45.4 µM | SF-539 23.2 µM | SK-OV-3 > 100 µM | SN12C 58.2 µM | UACC-257 32.4 µM | UACC-62 34.6 µM

O=C(Nc1ccc(Cl)cc1Cl)c1cc2nc3ccccc3c(=O)n2c2ccccc12
inactive: A498 > 10 µM | CAKI-1 > 10 µM | HL-60 > 10 µM | HOP-92 > 10 µM | IGROV-1 > 10 µM | KM12 > 10 µM | MCF7 > 10 µM | MDA-MB-231 > 10 µM | MDA-MB-435 > 10 µM | OVCAR-5 > 10 µM | PC-3 > 10 µM | RXF 393 > 10 µM | SF-268 > 10 µM | SF-539 > 10 µM | SK-OV-3 > 10 µM | UACC-257 > 10 µM | UACC-62 > 10 µM

C=CCSC1=N/C(=C\c2ccc(C)cc2)C(=O)N1CC=C
inactive: A498 13.6 µM | CAKI-1 80 µM | HL-60 12.2 µM | HOP-92 11.7 µM | IGROV-1 44.2 µM | KM12 23.7 µM | MCF7 20.9 µM | MDA-MB-231 90.4 µM | MDA-MB-435 25.9 µM | OVCAR-5 25.4 µM | PC-3 22.2 µM | RXF 393 15.3 µM | SF-268 36.6 µM | SF-539 25.8 µM | SK-OV-3 63.4 µM | SN12C 12.7 µM | UACC-257 25.6 µM | UACC-62 32.3 µM

COC(=O)C1CCC(=O)N1CN(C(C)=O)c1ccccc1 (configuration not stated)
inactive: A498 > 100 µM | CAKI-1 > 100 µM | HL-60 > 100 µM | HOP-92 > 100 µM | IGROV-1 > 100 µM | KM12 > 100 µM | MCF7 > 100 µM | MDA-MB-231 > 100 µM | MDA-MB-435 > 100 µM | MOLT-4 > 100 µM | NCI-H226 > 100 µM | OVCAR-5 > 100 µM | PC-3 > 100 µM | SF-268 > 100 µM | SF-539 > 100 µM | SK-OV-3 > 100 µM | SN12C > 100 µM | UACC-257 > 100 µM | UACC-62 > 100 µM

CN1Cc2ccccc2/C=C\c2ccccc21
inactive: A498 69.5 µM | CAKI-1 40.9 µM | HOP-92 28 µM | IGROV-1 > 100 µM | KM12 52.4 µM | MCF7 24.7 µM | MDA-MB-231 96.2 µM | MDA-MB-435 39.8 µM | NCI-H226 > 100 µM | PC-3 64 µM | RXF 393 30.1 µM | SF-268 39.4 µM | SF-539 > 100 µM | SK-OV-3 87.3 µM | SN12C 83.4 µM | UACC-257 > 100 µM | UACC-62 60.8 µM

Cc1[nH]n(-c2ccc(S(=O)(=O)O)cc2)c(=O)c1/N=N/c1ccccc1
inactive: A498 > 100 µM | CAKI-1 > 100 µM | HOP-92 > 100 µM | IGROV-1 > 100 µM | KM12 > 100 µM | MCF7 > 100 µM | MDA-MB-231 > 100 µM | MDA-MB-435 > 100 µM | MOLT-4 > 100 µM | OVCAR-5 > 100 µM | PC-3 > 100 µM | RXF 393 > 100 µM | SF-268 50.7 µM | SF-539 > 100 µM | SK-OV-3 > 100 µM | SN12C > 100 µM | UACC-257 > 100 µM | UACC-62 95.1 µM
